Measured values: BindingDB's records for doi:10.1016/j.ejmech.2016.09.095 (Orleans University, 2017)

Key:
[1] = target: Alpha-N-acetylglucosaminidase (Homo sapiens) (UniProt P54802); experiment: Inhibition of alpha-hexosaminidase (unknown origin)
[2] = target: Alpha-N-acetylglucosaminidase (Homo sapiens) (UniProt P54802); experiment: Inhibition of alpha-hexosaminidase in human PBMC using 4-methylumbelliferyl 2-acetamido-2-deoxy-alpha-D-glucopyranoside as substrate at pH 4.3 after 17 hrs by fluorescence assay

Sequence of Alpha-N-acetylglucosaminidase (Homo sapiens) (P54802 whole entry, looked up): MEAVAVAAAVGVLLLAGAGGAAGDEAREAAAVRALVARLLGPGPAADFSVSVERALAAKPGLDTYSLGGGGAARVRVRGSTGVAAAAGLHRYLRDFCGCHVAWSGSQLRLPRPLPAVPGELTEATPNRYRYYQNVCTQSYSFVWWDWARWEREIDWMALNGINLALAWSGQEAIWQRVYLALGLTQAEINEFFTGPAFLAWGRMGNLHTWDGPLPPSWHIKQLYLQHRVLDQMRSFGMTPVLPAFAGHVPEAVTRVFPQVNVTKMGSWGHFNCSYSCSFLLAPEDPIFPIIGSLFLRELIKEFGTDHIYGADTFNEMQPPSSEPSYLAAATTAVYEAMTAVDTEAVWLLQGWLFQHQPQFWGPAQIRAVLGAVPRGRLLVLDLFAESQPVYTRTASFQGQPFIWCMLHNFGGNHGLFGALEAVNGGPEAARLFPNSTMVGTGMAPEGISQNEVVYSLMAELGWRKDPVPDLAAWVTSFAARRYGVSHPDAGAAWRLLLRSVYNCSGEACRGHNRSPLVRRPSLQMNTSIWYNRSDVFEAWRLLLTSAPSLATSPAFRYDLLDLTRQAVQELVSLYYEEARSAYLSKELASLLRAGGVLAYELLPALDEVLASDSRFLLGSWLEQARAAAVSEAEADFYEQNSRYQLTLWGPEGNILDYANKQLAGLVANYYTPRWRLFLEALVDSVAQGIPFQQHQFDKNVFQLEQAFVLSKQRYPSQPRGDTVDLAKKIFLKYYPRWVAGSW

Row | SMILES | IC50 [1] [nM] | IC50 [2] [nM]
1 | CC(=O)N[C@@H]1[C@@H](O)[C@H](O)[C@@H](CO)N[C@@H]1COCCCCc1ccccc1 | 100 | –
2 | CCCCC[C@H]1NC[C@@H](O)[C@@H](O)[C@H]1CO | – | > 160000
